# Assay results reported in patent US20210371388A1, “Bicyclic Carboxamide with Exocyclic Urea Derivatives as Antivirals for the Treatment of HBV Infection” (Baruch S. Blumberg Institute, priority 2020, published 2021).
# Test system: HBV replication in AML12HBV10 cells
# Experiment: Antiviral efficacy: HBV DNA in AML12HBV10 cell lysates by dot-blot hybridization
# Format: cell-based
# Details: Hepatitis B virus, AML12HBV10, 48 h, read-out: Antiviral activity (EC50), AML12HBV10 cells, 48 hours treatment, concentration that reduces the amount of HBV DNA by 50%
# Protocol: The antiviral efficacy of the compounds of the disclosure, as presented in Table 2, were determined in AML12HBV10 cells. AML12HBV10 is an immortalized murine hepatocyte (AML12)-derived stable cell line that supports robust HBV replication in a tetracycline inducible manner (Xu et al.). The cells were seeded into 96 well plates at a density of 2×10^4 cells per well and cultured in DMEM/F12 media with 10% fetal bovine serum in the absence of tetracycline to allow pgRNA transcription and HBV DNA replication. One day after seeding, cells were left untreated or treated with a serial dilution of testing compounds, ranging from 50 μM to 0.39 μM, for 48 hours. Cells were then lysed by adding into each well of 100 μl lysis buffer containing 10 mM Tris-HCl (pH 7.6), 1 mM EDTA, 100 mM NaCl and 1% NP-40 and incubated at 37° C. for 30 minutes. Half amount (50 μλ) of cell lysate from each well was combined with equal volume of denaturing solution containing 0.5N NaOH and 1.5M NaCl. After 5 minute incubation, 100 μl of neutralization solution (1M Tris-HCl, pH 7.4, 1.5M NaCl) was added into each well. The denatured cell lysates (totally 200 μl) were applied onto Nylon membrane using 96-well dot-blot manifold (Biorad). HBV DNA in the cell lysates were determined by dot-blot hybridization with alpha-^32P-UTP-labelled riboprobe specific for HBV minus strand DNA. The antiviral efficacy of a compound of the disclosure was expressed as the concentration that reduces the amount of HBV DNA by 50% (EC50).
row,Structure (SMILES),EC50
1,COC(=O)[C@@H]1CC(F)(F)CN1CC1CNc2ccccc2N1C(=O)Nc1ccc(F)c(Cl)c1 (some centres unmarked) [Entry 100],1110 nM
2,O=C(Nc1ccc(F)c(Cl)c1)N1c2ccccc2NCC1CN1CCC2(CC1)OCCO2 (centres unmarked) [Entry 103],≥ 10000 nM
3,CS(=O)(=O)N1CCN(CC2CNc3ccccc3N2C(=O)Nc2ccc(F)c(Cl)c2)CC1 (centres unmarked) [Entry 104],≥ 10000 nM
4,CCOC(=O)C1=C(F)CCN(CC2CNc3ccccc3N2C(=O)Nc2ccc(F)c(Cl)c2)C1 (centres unmarked) [Entry 105],≥ 10000 nM
5,CCOC(=O)C1CN(CC2CNc3ccccc3N2C(=O)Nc2ccc(F)c(Cl)c2)CCC1(F)F (centres unmarked) [Entry 106],7680 nM
6,O=C(O)C1CCCN(CC2CNc3ccccc3N2C(=O)Nc2ccc(F)c(Cl)c2)C1 (centres unmarked) [Entry 107],≥ 10000 nM
7,O=C(Nc1ccc(F)c(Cl)c1)N1c2ccccc2NCC1CN1CCC(F)(F)C(CO)C1 (centres unmarked) [Entry 108],2170 nM
8,O=C(Nc1ccc(F)c(Cl)c1)N1c2ccccc2NCC1CN1CCS(=O)(=O)CC1 (centres unmarked) [Entry 110],2000 nM
9,O=C(Nc1cc(F)c(F)c(F)c1)N1CCN(C(=O)Nc2ccc(F)c(Cl)c2)c2ccccc21 [Entry 111],500 nM
10,O=C(Nc1ccc(F)c(Cl)c1)N1CCN(C(=O)Nc2cc(Cl)c(F)cc2F)c2ccccc21 [Entry 112],290 nM
11,O=C(O)C1CN(CC2CNc3ccccc3N2C(=O)Nc2ccc(F)c(Cl)c2)CC(F)(F)C1 (centres unmarked) [Entry 113],450 nM
12,Cc1cc(NC(=O)N2CCNc3ccccc32)ccc1F [Entry 116],240 nM
13,N#Cc1cc(NC(=O)N2CCNc3ccccc32)ccc1F [Entry 119],520 nM
14,O=C1CCN(C(=O)Nc2ccc(F)c(C(F)(F)F)c2)C2CCCCC12 (centres unmarked) [Entry 120],1090 nM
15,O=C(Nc1ccc(F)c(C(F)(F)F)c1)N1CCNc2ccccc21 [Entry 122],320 nM
16,O=C(Nc1ccc(F)c(C(F)F)c1)N1CCNc2ccccc21 [Entry 125],190 nM
17,O=C1CCN(C(=O)Nc2cccc(Cl)c2)C2CCCCC12 (centres unmarked) [Entry 126],200 nM
